The test system of one series is ovalbumin IgG1. Kind of series: Serum anti-ovalbumin IgG1 ELISA after OVA/CFA immunization of mice. It is filed as in vivo, Mouse, C57BL6. The following applies: for anti-OVA IgG1 concentrations in serum: 7.5 and 10 mg/kg IP BID for a single day, 3, 6, 14 or 28 days after immunization, Day 30 and Day 62 samples. The method, then:
A study was performed to evaluate the effect of plinabulin on boosting B-cell response to immunization. Samples were prepared using an emulsion of complete Freund's adjuvant (CFA) with the foreign protein ovalbumin (OVA), each with varying concentrations of plinabulin (plinabulin doses range from 0.01 mg to 30 mg), and the control was prepared with no plinabulin added. Normal healthy mice were immunized by subcutaneous injection of the CFA+OVA emulsion +/−plinabulin, and/or intraperitoneal injection of ALUM+OVA adjuvant +/−plinabulin (n=5 mice per plinabulin dose group). At different time points as discussed below in this Example, the animals were bled to collect serum for evaluating the concentration of IgG that binds OVA in the serum.
DOSE PREPARATION OF OVALBUMIN EMULSIONS IN COMPLETE FREUND'S ADJUVANT: EndoFit™ Ovalbumin Kit (InvivoGen, USA), containing 10 mg powder in one glass vial and 10 mL of sterile endotoxin-free physiological water in one glass vial, and CFA 10 mL in one glass vial were received in good condition and stored at 2-8° C. until Day 1. The sterile endotoxin-free saline solution was allowed to reach room temperature before use. Inside a BSL2 cabinet, 5 mL sterile water was added into the vial containing 10 mg of OVA and gently agitated to obtain a homogenous 2 mg/mL OVA solution. To 2.5 mL of CFA, 2.5 mL of OVA solution was added; and the mixture was emulsified by vigorously mixing into two connected 10 mL locking syringes to prepare a 1 mg/mL OVA/CFA emulsion. The emulsification was kept chilled by placing the apparatus into crushed ice for 5 minutes, then mixing and cooling was repeated an additional two times. Stability of the emulsion was tested by adding a drop into water to verify that the emulsion would not dissipate. The emulsion was transferred into five 1 mL syringes for injection and kept cool on crushed ice until immunization. The emulsification processes were repeated with an additional 2.5 mL of OVA solution and 2.5 mL of CFA during immunization of animals to use within 4 hours of preparation.
DOSE PREPARATION OF TEST ARTICLES: Plinabulin solution (Plin-A) at a 0.75 mg/mL was prepared on each day of dosing. Plinabulin powder (3 mg) was weighed into a separate light protected amber vial at room temperature. Using a micropipette, 284 μL of Tween-80 was added to the amber vial and vortex for 1 minute. 1,020 μL of propylene glycol was added to the amber vial and vortexed for 15 minutes, then sonicated in a water bath for 30 minutes. Finally, 2,696 μL of 5% dextrose in water was added to the solution and vortexed for 3 minutes to achieve 4 mL of a 0.75 mg/mL plinabulin solution. Plinabulin solution (Plin-B) at a 1.0 mg/mL was prepared on each day of dosing. Plinabulin powder (3 mg) was weighed into a separate light protected amber vial at room temperature. Using a micropipette, 213 μL of Tween-80 was added to the amber vial and vortex for 1 minute. 765 μL of propylene glycol was added to the amber vial and vortex for 15 minutes, then sonicated in a water bath for 30 minutes. Finally, 2,022 μL of 5% dextrose in water was added to the solution and vortexed for 3 minutes to achieve 3 mL of a 1.0 mg/mL plinabulin solution.
ANTI-OVALBUMIN ASSAY: Mouse anti-OVA IgG1 ELISA kits (Cayman Chemical, USA) were purchased to perform the assay. Serum samples from Day 30 were assayed in 1-to-2,000, 1-to-6,000 and 1-to-20,000 dilution. Serum samples from Day 62 were assayed in 1-to-2,000 and 1-to-20,000 dilution. […]
For orientation: In an ELISA, binding on a coated surface is turned into a signal by an enzyme label.

Series [1] is classed as in vivo, Mouse, C57BL6. As to conditions: 15 mg/kg IP BID, subgroup I group 3, three animals. The method, then:
Detailed Clinical Observations: Scheduled detailed clinical observations were not conducted on this study. Unscheduled clinical observations were made on mice flagged by trained personnel during daily moribundity/morbidity checks for any reason.
The remaining subgroups II-V, group 3 animals were dosed at 10 mg/kg (indicated as “*” in Tables 3-4 above). The experimental observations described below in this Example were focused on the lower dose (10-mg/kg) mice.

For series [2] the following is noted: human; cited from earlier work.

On to `CC(C)(C)c1[nH]cnc1/C=c1\[nH]c(=O)/c(=C/c2ccccc2)[nH]c1=O` [Plinabulin, (3Z,6Z)-3-Benzylidene-6-{[5-(2-methyl-2-propanyl)-1H-imidazol-4-yl]methylene}-2,5-piperazinedione], for which the “anti-OVA IgG1 concentrations in serum” value in the series with ovalbumin IgG1 is listed as “inhibitory effects on anti-OVA in 4 out of 5 subgroups”; in the series with ovalbumin IgG1 (listed as plinabulin) it was “significantly reduced, or tended to be reduced”. For the same molecule, the “concentration of anti-OVA IgG in serum versus immunization without plinabulin” value with ovalbumin IgG1 (mice immunized with CFA+OVA or ALUM+OVA +/- plinabulin) is “higher concentrations of anti-OVA IgG”. In the series on ovalbumin IgG1 (subgroup 1: 7.5 mg/kg IP BID, 1 hour after immunization, Day 62), the “OVA IgG1 production in serum on Day 62” value is reported as “significantly increased OVA IgG1 production”. For the same molecule, the “production of OVA IgG1 in serum on Day 30” value in the series with ovalbumin IgG1 (subgroup 1: plinabulin IP BID 3 hours apart, 1 hour after OVA/CFA immunization, Day 30) is “dose-dependently increased the production of OVA IgG1 on Day 30 without reaching statistical significance”. Further, in series [1], the “clinical observations within 1 day following test article administration” value was “decreased activity, irregular breathing, dehydration, and body cold to touch”. The plasma elimination half-life in series [2] was 5 to 6 h.

The values above are taken from patent publication US20210177952A1, “METHOD AND COMPOSITION FOR STIMULATING IMMUNE RESPONSE” (BeyondSpring Pharmaceuticals, Inc., priority 2018, published 2021).
